Laboratory results as given in patent publication US5710173A, “Thienyl compounds for inhibition of cell proliferative disorders” (Sugen, Inc., priority 1995, dated 1998).
pIC50: −log10 of the molar value.

Columns and labels:
EGFR = molecular target: T1, EGFR (Homo sapiens, UniProt P00533); assay: EGFR Whole Cell Kinase Assay; assay type: cell-based; conditions: EGFR/C7 NIH3T3 cells, EGF 25 nM; quantity and unit inferred; read-out: ELISA DATA, EGFR
T1 construct: expressed in transfected cells; host or cells: NIH3T3 clone C7 (EGFR/C7)
Text: The following examples illustrates the ability of the exemplary compounds to inhibit receptor tyrosine kinases, such as HER2 and/or EGFR. The following target cells were used for cellular kinase assays: NIH3T3 clone C7 (Honegger et al., supra) engineered to over-express human EGF receptor; NIH3T3 cells engineered to over-express a chimeric receptor containing the EGFR extracellular domain and the HER2 intracellular kinase domain; the human mammary carcinoma line BT474 (ATCC HTB2) expressing HER2; and the human glioblastoma line U1242 that expresses PDGFR-beta. Growth assays were carried out using human mammary epithelial SKBR3 (ATCC HTB30) cells (SKBR3 cells over-express HER2), SKOV3 (ATCC HTB77) human ovarian cancer cell line (SKOV3 cells also over-express HER2), A431 cells (A431 cells over-express EGFR) MCF7 human breast carcinoma cells, MCF7 cells overexpressing the HER2 kinase (MCF7-HER2), NIH3T3 cells, and NIH3T3 cells overexpressing the HER2 kinase (3T3-HER2.
EGFR Whole Cell Kinase Assay
EGFR kinase activity (EGFR-3T3 assay) in whole cells was measured as described below:
1) EGF Ligand: stock concentration=16.5 μM; EGF 201, TOYOBO, Co., Ltd. Japan.
2) 05-101 (UBI) (a monoclonal antibody recognizing an EGFR extracellular domain).
3) Anti-Phosphotyosine antibody (polyclonal) (made according to Fendley et al., Cancer Research 50:1550-1558, 1990). […]

[1] = system: IGF-1R protein tyrosine kinase; conditions: Sepp-Lorenzino et al., Abstract, 1994; cited from earlier work
[2] = system: human breast cancer cells; conditions: Sepp-Lorenzino et al., Abstract, 1994; cited from earlier work

T1 sequence (P00533 25-1210): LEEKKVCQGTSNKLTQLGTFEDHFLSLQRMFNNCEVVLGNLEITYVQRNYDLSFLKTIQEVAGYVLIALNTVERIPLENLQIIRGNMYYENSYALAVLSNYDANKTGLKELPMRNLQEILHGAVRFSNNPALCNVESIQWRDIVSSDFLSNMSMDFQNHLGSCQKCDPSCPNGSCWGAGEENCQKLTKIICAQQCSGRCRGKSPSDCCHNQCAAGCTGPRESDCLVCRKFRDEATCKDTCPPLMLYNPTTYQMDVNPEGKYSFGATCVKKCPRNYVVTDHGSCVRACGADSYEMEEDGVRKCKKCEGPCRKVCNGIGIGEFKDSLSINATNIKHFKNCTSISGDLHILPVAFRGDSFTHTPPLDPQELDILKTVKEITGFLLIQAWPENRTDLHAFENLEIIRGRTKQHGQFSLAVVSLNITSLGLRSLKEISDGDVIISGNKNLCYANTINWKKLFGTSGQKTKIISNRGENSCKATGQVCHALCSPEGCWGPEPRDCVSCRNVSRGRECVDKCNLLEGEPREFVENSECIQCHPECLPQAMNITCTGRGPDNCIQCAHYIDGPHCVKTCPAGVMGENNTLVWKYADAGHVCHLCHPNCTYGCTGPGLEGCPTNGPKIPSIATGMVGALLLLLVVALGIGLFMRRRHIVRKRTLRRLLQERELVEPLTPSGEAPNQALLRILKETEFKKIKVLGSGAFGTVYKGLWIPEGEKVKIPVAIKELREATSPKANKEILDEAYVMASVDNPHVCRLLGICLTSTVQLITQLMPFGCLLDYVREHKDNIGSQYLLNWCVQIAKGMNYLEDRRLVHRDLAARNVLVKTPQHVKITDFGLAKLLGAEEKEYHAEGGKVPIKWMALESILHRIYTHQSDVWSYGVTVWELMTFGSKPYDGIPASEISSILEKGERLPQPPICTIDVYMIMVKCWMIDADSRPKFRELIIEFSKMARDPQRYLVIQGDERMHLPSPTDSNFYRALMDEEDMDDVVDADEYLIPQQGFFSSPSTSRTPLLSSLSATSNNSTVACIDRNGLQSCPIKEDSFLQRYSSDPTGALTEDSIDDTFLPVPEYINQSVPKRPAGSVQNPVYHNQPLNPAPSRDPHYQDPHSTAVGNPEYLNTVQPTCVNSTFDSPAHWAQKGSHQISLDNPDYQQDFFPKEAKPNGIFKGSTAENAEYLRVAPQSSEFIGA

pIC50 (EGFR) | SMILES | said to inhibit the IGF-1R protein tyrosine kinase [1] | said to inhibit cellular proliferation in human breast cancer cells [2]
< 4.00 | N#C/C(=C\c1ccc([N+](=O)[O-])s1)S(=O)(=O)c1ccccc1 [Example G771, (E)-3-(2-nitrothien-5-yl)-2-phenylsulfonylacrylonitrile] | – | –
< 4.00 | N#C/C(=C\c1ccc([N+](=O)[O-])s1)S(=O)(=O)c1ccccn1 [Example G772, (E)-3-(2-nitrothien-5-yl)-2-[(pyridin-2-yl)sulfonyl]acrylonitrile] | – | –
– | COC1C=CC=C(C)C(=O)NC2=CC(=O)C=C(C2=O)C(OC)C(C)CC(OC)C(OC)C(C)C=C(C)C1OC(N)=O (stereo not shown) [Herbimycin A] | inhibit | inhibit
